Results reported in US9067967B2, “Peptides useful in the treatment and care of the skin and mucous membranes and their use in cosmetic or pharmaceutical compositions” (LIPOTEC, S.A., priority 2011, dated 2015).

Assays:
Assay type in all cases: cell-based
human AQP-3 promoter = assay: Modulation of the human AQP-3 promoter activity (luciferase reporter in stably transfected keratinocytes); conditions: peptide at 0.5 mg/mL, 16-24 hours; normalized to negative control (carrier = 100%)
Experimental: The modulation capacity of the promoter of the AQP-3 gene was evaluated in a cell line of keratinocytes stably transfected with the luciferase gene under the regulation of the human AQP-3 promoter. 20,000 to 30,000 cells per well were seeded and incubated for 24 hours in DMEM medium, after which the peptides of the invention were added at 0.5 mg/mL and were incubated for another 16-24 hours. The DMEM medium (carrier) was used as a negative control. The measurement of the promoter's activity was carried out using the Steady-Glo® Luciferase Assay System (PROMEGA) kit following the manufacturer's instructions. The luminescence values were read on a luminometer at 630 nm and the activity of the promoter was determined, which was normalized with regards to the values of the negative control.

[1] = system: human epidermal keratinocytes; assay: Proliferation of human epidermal keratinocytes (calcein-AM fluorescence); conditions: 24 hours, carrier = 0%
Experimental: Cell proliferation was evaluated by a fluorescence-based cell viability method, in which the live cells are distinguished from the dead cells by the enzymatic conversion of calcein-AM to its fluorescent form.
Human keratinocytes were cultivated in DMEM supplemented with fetal bovine serum (FBS, Cultek) until confluence is achieved. The cells were then separated using trypsin and were seeded in 96-well plates. After 24 hours of incubation in DMEM at 37° C. in a humidified atmosphere at 5% CO2 a fresh medium was added with different concentrations of the product of the invention. Cells treated with DMEM as a negative control were used. The cells were incubated for another 24 hours under the same conditions and the medium was substituted by 100 μl of calcein-AM (Molecular Probes) at 0.4 μM diluted in phosphate buffered saline (PBS, Sigma). After 30 minutes of incubation at 37° C. the fluorescence was measured at excitation 485 nm 1 and emission 530 nm (λem) in a plate reader (Genios Tecan). The total growth percentage was calculated as T/C×100 wherein T is the fluorescence of the wells treated with the peptides of the invention and C the fluorescence of the control wells treated with DMEM.

[2] = system: human dermal fibroblasts (HDFa); assay: Stimulation of collagen type I synthesis in human dermal fibroblasts (ELISA); conditions: 48 hours, carrier = 0%
Experimental: The ability of the peptides of the invention to stimulate collagen type I synthesis in human dermal fibroblasts (HDFa, Cascade Biologics) was evaluated in culture using ELISA (enzyme-linked immunosorbent assay). The fibroblasts grew in M106 supplemented with specific factors for their growth. 50,000 cells per well were seeded and incubated at 37° C., 5% CO2, with humidified air. After 24 hours the peptides of the invention were added, and were incubated for another 48 hours, after which the supernatants were collected.
96-well plates were covered with 50 μL of a standard bovine collagen type I (Sigma) or with the previously collected supernatants. The collagen was absorbed onto the wells throughout the night at 4° C. in a humidified atmosphere. The plates were washed three times and were blocked for one hour with 3% bovine serum albumin, after which they were incubated with a primary anti-collagen type I anti-body (Sigma) for 2 hours. Subsequently, the secondary antibody, goat anti-mouse IgG-HRP (Molecular Probes) was added. The plates were incubated with the […] for 30 minutes under stirring and the reaction was stopped by adding 3 M of H2SO4. The absorbance was measured at 490 nm in a plate reader (Genios, Tecan) and the concentration of collagen was determined by comparing it with a standard linear regression line.

AQP-3 gene = assay: Relative quantification of AQP-3 mRNA by quantitative real time PCR in human epidermal keratinocytes; conditions: 0.1 mg/mL, 16-24 hours; normalized to untreated cells (carrier = 100%)
Experimental: The expression levels of the gene AQP-3 were measured by PCR in quantitative real time. A human keratinocyte cell line from adult skin was incubated at a density of 10,000 to 20,000 cells per well in EpiLife™ medium (Cascade Biologics) for 3-5 days and they were subsequently incubated with the peptides of the invention for another 16-24 hours, after which the cells were lysed and the RNA was extracted. The PCR was carried out in quantitative real time using the Taqman® Gene Expression Cells-to-CT (Applied Biosystems) kit according to the manufacturer's instructions and with the appropriate probes (TaqMan® Hs00185020_m1 probe for the AQP-3 gene and Taqman® Hs99999901_s1 probe for the eukaryotic ribosomal subunit 18S, the endogenous control of expression) and the values were normalized with regards to the basal levels of AQP-3 mRNA of the untreated cells (carrier).

Substance	Activity of the AQP-3 promoter (%) (human AQP-3 promoter)	also measured
Ac-L-Ser-L-Pro-L-Ala-Gly-Gly-L-Gln-NH2 (Ac-SPAGGQ-NH2) [Ac-SEQ ID 8-NH2]	152	
Ac-L-Ser-L-Pro-L-Ala-Gly-Gly-L-His-NH2 (Ac-SPAGGH-NH2) [Ac-SEQ ID 45-NH2]	120	
Ac-L-Ser-L-Pro-L-Ala-Gly-Gly-L-Pro-NH2 (Ac-SPAGGP-NH2) [Ac-SEQ ID 10-NH2]	135	% Stimulation of proliferation ([1]; 0.16 mg/mL): 24%; % Stimulation of proliferation ([1]; 0.62 mg/mL): 28%; % Stimulation of proliferation ([1]; 2.50 mg/mL): 31%; % Increase in collagen type I synthesis ([2]; 0.01 mg/mL): 36%; % Increase in collagen type I synthesis ([2]; 0.1 mg/mL): 58%; % relative quantity AQP-3 mRNA (AQP-3 gene): 200%
Ac-L-Ser-L-Pro-L-Ala-L-Glu-Gly-Gly-NH2 (Ac-SPAEGG-NH2) [Ac-SEQ ID 6-NH2]	124	
Ac-L-Ser-L-Pro-L-Ala-L-Glu-Gly-L-Gln-NH2 (Ac-SPAEGQ-NH2) [Ac-SEQ ID 5-NH2]	121	
Ac-L-Ser-L-Pro-L-Ala-L-Glu-Gly-L-His-NH2 (Ac-SPAEGH-NH2) [Ac-SEQ ID 48-NH2]	117	
Ac-L-Ser-L-Pro-L-Ala-L-Val-Gly-Gly-NH2 (Ac-SPAVGG-NH2) [Ac-SEQ ID 40-NH2]	126	
Ac-L-Ser-L-Pro-L-Ala-L-Val-Gly-L-Gln-NH2 (Ac-SPAVGQ-NH2) [Ac-SEQ ID 39-NH2]	133	
Ac-L-Ser-L-Pro-L-Ala-L-Val-Gly-L-Pro-NH2 (Ac-SPAVGP-NH2) [Ac-SEQ ID 49-NH2]	116	
Ac-L-Ser-L-Val-L-Ala-Gly-Gly-Gly-NH2 (Ac-SVAGGG-NH2) [Ac-SEQ ID 38-NH2]	156	
Ac-L-Ser-L-Val-L-Ala-Gly-Gly-L-Gln-NH2 (Ac-SVAGGQ-NH2) [Ac-SEQ ID 50-NH2]	115	
Ac-L-Ser-L-Val-L-Ala-Gly-Gly-L-His-NH2 (Ac-SVAGGH-NH2) [Ac-SEQ ID 41-NH2]	124	
Ac-L-Ser-L-Val-L-Ala-Gly-Gly-L-Pro-NH2 (Ac-SVAGGP-NH2) [Ac-SEQ ID 13-NH2]	144	
Ac-L-Ser-L-Val-L-Ala-L-Glu-Gly-Gly-NH2 (Ac-SVAEGG-NH2) [Ac-SEQ ID 46-NH2]	119	
Ac-L-Ser-L-Val-L-Ala-L-Glu-Gly-L-Gln-NH2 (Ac-SVAEGQ-NH2) [Ac-SEQ ID 12-NH2]	138	
Ac-L-Ser-L-Val-L-Ala-L-Glu-Gly-L-His-NH2 (Ac-SVAEGH-NH2) [Ac-SEQ ID 58-NH2]	112	
Ac-L-Ser-L-Val-L-Ala-L-Val-Gly-Gly-NH2 (Ac-SVAVGG-NH2) [Ac-SEQ ID 16-NH2]	127	
Ac-L-Ser-L-Val-L-Ala-L-Val-Gly-L-Gln-NH2 (Ac-SVAVGQ-NH2) [Ac-SEQ ID 15-NH2]	129	% relative quantity AQP-3 mRNA (AQP-3 gene): 162%
Ac-L-Ser-L-Val-L-Ala-L-Val-Gly-L-Pro-NH2 (Ac-SVAVGP-NH2) [Ac-SEQ ID 17-NH2]	121	

Substance	Activity of the AQP-3 promoter (%) (human AQP-3 promoter)	also measured
Ac-L-Tyr-L-Pro-L-Ala-Gly-Gly-Gly-NH2 (Ac-YPAGGG-NH2) [Ac-SEQ ID 25-NH2]	132	
Ac-L-Tyr-L-Pro-L-Ala-Gly-Gly-L-Gln-NH2 (Ac-YPAGGQ-NH2) [Ac-SEQ ID 43-NH2]	122	
Ac-L-Tyr-L-Pro-L-Ala-Gly-Gly-L-Pro-NH2 (Ac-YPAGGP-NH2) [Ac-SEQ ID 26-NH2]	114	
Ac-L-Tyr-L-Pro-L-Ala-L-Glu-Gly-Gly-NH2 (Ac-YPAEGG-NH2) [Ac-SEQ ID 23-NH2]	125	
Ac-L-Tyr-L-Pro-L-Ala-L-Glu-Gly-L-Gln-NH2 (Ac-YPAEGQ-NH2) [Ac-SEQ ID 22-NH2]	135	% relative quantity AQP-3 mRNA (AQP-3 gene): 229%
Ac-L-Tyr-L-Pro-L-Ala-L-Glu-Gly-L-Pro-NH2 (Ac-YPAEGP-NH2) [Ac-SEQ ID 24-NH2]	121	
Ac-L-Tyr-L-Pro-L-Ala-L-Val-Gly-Gly-NH2 (Ac-YPAVGG-NH2) [Ac-SEQ ID 29-NH2]	125	
Ac-L-Tyr-L-Pro-L-Ala-L-Val-Gly-L-Gln-NH2 (Ac-YPAVGQ-NH2) [Ac-SEQ ID 28-NH2]	129	
Ac-L-Tyr-L-Pro-L-Ala-L-Val-Gly-L-His-NH2 (Ac-YPAVGH-NH2) [Ac-SEQ ID 30-NH2]	121	
Ac-L-Tyr-L-Pro-L-Ala-L-Val-Gly-L-Pro-NH2 (Ac-YPAVGP-NH2) [Ac-SEQ ID 31-NH2]	122	
Ac-L-Tyr-L-Val-L-Ala-Gly-Gly-Gly-NH2 (Ac-YVAGGG-NH2) [Ac-SEQ ID 33-NH2]	129	
Ac-L-Tyr-L-Val-L-Ala-Gly-Gly-L-Gln-NH2 (Ac-YVAGGQ-NH2) [Ac-SEQ ID 42-NH2]	123	
Ac-L-Tyr-L-Val-L-Ala-Gly-Gly-L-His-NH2 (Ac-YVAGGH-NH2) [Ac-SEQ ID 34-NH2]	136	
Ac-L-Tyr-L-Val-L-Ala-Gly-Gly-L-Pro-NH2 (Ac-YVAGGP-NH2) [Ac-SEQ ID 35-NH2]	150	
Ac-L-Tyr-L-Val-L-Ala-L-Glu-Gly-Gly-NH2 (Ac-YVAEGG-NH2) [Ac-SEQ ID 56-NH2]	112	
Ac-L-Tyr-L-Val-L-Ala-L-Glu-Gly-L-His-NH2 (Ac-YVAEGH-NH2) [Ac-SEQ ID 44-NH2]	120	
Ac-L-Tyr-L-Val-L-Ala-L-Glu-Gly-L-Pro-NH2 (Ac-YVAEGP-NH2) [Ac-SEQ ID 32-NH2]	135	
Ac-L-Tyr-L-Val-L-Ala-L-Val-Gly-Gly-NH2 (Ac-YVAVGG-NH2) [Ac-SEQ ID 36-NH2]	120	
